Data: ChEMBL document CHEMBL1201862, “PubChem BioAssay data set” (2004)
Active and inactive are the calls of the source.

Assays:
[1] = Luminescence Cell-Based Dose Response HTS to Identify Inhibitors of 5'UTR Stem-Loop Driven Prion Protein mRNA Translation in H4 Neuroglioblastoma Cells. [Related pubchem assays: 1827 (Project Summary), 1813 (Primary HTS)]; assay type: functional
[2] = biological target: Type-1 angiotensin II receptor (Homo sapiens, UniProt P30556); test: agonist activity at AGTR1 – cell-based, uHTS hits, selectivity assay for APJ receptor agonist project, dose response (AID 488865); assay type: functional;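 further: beta-arrestin recruitment to AT1 measured by enzyme fragment complementation luminescence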
Sequence of Type-1 angiotensin II receptor (P30556 whole entry, the tested form may be a part): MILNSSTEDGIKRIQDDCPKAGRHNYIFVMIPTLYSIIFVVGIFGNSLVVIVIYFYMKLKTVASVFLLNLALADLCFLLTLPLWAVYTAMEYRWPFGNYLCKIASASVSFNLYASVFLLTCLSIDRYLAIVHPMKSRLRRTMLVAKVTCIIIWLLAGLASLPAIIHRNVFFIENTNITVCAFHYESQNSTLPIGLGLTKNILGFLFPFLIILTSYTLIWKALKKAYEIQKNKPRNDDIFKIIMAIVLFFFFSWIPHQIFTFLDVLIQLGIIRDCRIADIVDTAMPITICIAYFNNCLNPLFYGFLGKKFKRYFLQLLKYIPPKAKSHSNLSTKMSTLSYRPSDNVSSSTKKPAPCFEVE

[3] = luciferase reporter signal suppression in cells – H4 neuroglioma cells, luminescence, dose response (AID 1990); assay type: functional, cell-based
[4] = alpha-synuclein stem-loop luciferase translation blockers – H4 neuroglioma cells, luminescence, confirmation (AID 1988); assay type: functional, cell-based
[5] = biological target: Glyceraldehyde-3-phosphate dehydrogenase (Homo sapiens, UniProt P04406)
Sequence of Glyceraldehyde-3-phosphate dehydrogenase (P04406 whole entry): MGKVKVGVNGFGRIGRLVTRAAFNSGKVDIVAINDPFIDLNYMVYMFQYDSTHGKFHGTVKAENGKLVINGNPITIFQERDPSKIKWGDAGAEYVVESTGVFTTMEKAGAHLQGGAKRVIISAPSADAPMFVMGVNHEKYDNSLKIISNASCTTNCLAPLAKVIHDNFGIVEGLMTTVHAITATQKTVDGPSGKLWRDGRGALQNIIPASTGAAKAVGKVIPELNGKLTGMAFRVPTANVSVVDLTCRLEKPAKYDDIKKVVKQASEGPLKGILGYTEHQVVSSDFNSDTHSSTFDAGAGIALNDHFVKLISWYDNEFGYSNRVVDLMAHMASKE

[6] = biological target: T1, Alkaline phosphatase, tissue-nonspecific isozyme (Homo sapiens, UniProt P05186); test: potency against alkaline phosphatase TNAP – biochemical, luminescent, dose response, SAR follow-up (AID 1056)
T1 sequence (P05186 whole entry): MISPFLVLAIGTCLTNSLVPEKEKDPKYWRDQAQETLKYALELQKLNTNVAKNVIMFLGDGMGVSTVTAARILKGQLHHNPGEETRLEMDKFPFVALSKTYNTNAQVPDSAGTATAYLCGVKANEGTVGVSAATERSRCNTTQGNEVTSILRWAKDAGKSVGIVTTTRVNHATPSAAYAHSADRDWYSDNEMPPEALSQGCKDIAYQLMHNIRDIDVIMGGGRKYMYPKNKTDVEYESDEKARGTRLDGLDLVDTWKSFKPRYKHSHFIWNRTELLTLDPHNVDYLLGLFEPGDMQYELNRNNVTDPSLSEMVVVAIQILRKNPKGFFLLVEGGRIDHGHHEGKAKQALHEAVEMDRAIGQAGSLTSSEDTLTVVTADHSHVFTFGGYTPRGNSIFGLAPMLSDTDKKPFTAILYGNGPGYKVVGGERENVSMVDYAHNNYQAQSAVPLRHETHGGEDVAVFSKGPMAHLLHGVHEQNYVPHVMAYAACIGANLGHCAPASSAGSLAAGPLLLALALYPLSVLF

[7] = biological target: Alkaline phosphatase, placental type (Homo sapiens, UniProt P05187); test: human placental alkaline phosphatase inhibition – biochemical, luminescence, confirmation (AID 1512); assay type: functional
Sequence of Alkaline phosphatase, placental type (P05187 whole entry): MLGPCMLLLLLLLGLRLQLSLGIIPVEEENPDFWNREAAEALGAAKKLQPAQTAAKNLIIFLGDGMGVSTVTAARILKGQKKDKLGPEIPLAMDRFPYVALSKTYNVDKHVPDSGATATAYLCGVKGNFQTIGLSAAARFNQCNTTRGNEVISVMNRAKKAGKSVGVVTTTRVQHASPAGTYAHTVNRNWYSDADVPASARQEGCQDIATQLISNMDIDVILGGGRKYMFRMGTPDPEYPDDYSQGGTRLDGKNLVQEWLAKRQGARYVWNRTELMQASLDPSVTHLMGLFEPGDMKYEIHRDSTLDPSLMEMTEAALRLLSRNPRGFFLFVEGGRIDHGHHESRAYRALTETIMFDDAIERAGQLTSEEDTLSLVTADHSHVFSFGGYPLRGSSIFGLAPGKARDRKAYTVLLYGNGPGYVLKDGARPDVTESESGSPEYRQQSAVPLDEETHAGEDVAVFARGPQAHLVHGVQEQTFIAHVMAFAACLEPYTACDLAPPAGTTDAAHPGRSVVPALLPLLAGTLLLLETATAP

[8] = Luminescence Cell-Based Dose Retest to Confirm Inhibitors of Cancer Stem Cells. [Related pubchem assays (depositor defined):AID2717, AID2721]; assay type: functional; conditions: Homo sapiens
[9] = biological target: DNA damage-inducible transcript 3 protein (Mus musculus, UniProt P35639); assay type: functional, Cricetulus griseus
Sequence of DNA damage-inducible transcript 3 protein (P35639 whole entry): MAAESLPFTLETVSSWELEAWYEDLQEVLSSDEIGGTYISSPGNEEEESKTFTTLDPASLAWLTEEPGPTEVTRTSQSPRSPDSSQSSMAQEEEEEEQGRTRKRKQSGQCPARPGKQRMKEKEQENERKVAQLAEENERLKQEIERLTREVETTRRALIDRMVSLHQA

X-box-binding protein 1 = X-box-binding protein 1 (Homo sapiens, UniProt P17861); assay type: functional, Cricetulus griseus;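 further: confirmatory dose-response counter-screen serving a CHOP assay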
Sequence of X-box-binding protein 1 (P17861 whole entry, the tested form may be a part): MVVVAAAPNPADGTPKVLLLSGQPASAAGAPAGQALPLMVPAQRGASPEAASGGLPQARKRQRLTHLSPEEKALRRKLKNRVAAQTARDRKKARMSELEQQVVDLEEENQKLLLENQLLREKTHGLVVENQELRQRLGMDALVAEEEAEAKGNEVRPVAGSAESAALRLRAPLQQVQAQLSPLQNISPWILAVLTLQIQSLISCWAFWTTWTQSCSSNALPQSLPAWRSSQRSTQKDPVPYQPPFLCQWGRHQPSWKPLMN

Perilipin-1/ABHD5 = Perilipin-1/ABHD5 (Homo sapiens, UniProt O60240+Q8WTS1); test: Luminescence-based biochemical high throughput dose response assay for inhibitors of the interaction of the lipase co-activator protein, abhydrolase domain containing 5 (ABHD5) with perilipin-1 (PLIN1) (2K validation set). [Related pubchem assays (depositor defined):AID493027, AID493057]
Sequence of Perilipin-1/ABHD5 (Q8WTS1 whole entry, the tested form may be a part): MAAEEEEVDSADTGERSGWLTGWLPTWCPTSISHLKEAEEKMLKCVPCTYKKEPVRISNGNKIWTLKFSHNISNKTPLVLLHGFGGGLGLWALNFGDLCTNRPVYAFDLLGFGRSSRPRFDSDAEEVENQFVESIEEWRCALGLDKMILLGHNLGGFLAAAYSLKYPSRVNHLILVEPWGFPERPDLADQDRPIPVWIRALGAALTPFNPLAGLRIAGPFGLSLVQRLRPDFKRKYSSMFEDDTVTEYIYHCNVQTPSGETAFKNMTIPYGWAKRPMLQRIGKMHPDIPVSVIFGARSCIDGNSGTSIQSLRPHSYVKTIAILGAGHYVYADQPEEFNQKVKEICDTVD
Sequence of Perilipin-1/ABHD5 (O60240 whole entry, the tested form may be a part): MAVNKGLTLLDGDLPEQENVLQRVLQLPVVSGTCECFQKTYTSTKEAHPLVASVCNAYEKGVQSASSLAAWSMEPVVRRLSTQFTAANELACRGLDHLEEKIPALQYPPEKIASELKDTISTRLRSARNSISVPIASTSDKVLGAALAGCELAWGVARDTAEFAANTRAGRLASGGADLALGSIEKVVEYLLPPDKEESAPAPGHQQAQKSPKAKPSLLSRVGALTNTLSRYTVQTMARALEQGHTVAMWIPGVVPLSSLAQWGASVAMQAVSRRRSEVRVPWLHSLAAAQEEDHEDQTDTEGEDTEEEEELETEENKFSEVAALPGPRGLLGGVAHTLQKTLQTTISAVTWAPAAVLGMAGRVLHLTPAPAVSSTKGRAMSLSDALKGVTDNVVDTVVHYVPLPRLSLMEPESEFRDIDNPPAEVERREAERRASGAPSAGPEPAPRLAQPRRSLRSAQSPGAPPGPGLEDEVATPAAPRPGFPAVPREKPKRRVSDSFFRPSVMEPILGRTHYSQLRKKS

[10] = biological target: 1-acylglycerol-3-phosphate O-acyltransferase ABHD5/Perilipin-5 (Homo sapiens, UniProt Q00G26+Q8WTS1); test: Luminescence-based biochemical high throughput dose response assay for inhibitors of the interaction of the lipase co-activator protein, abhydrolase domain containing 5 (ABHD5) with perilipin-5 (MLDP; PLIN5) (2K validation set). [Related pubchem assays (depositor defined):AID493035, AID493241]
Sequence of 1-acylglycerol-3-phosphate O-acyltransferase ABHD5/Perilipin-5 (Q00G26 whole entry, the tested form may be a part): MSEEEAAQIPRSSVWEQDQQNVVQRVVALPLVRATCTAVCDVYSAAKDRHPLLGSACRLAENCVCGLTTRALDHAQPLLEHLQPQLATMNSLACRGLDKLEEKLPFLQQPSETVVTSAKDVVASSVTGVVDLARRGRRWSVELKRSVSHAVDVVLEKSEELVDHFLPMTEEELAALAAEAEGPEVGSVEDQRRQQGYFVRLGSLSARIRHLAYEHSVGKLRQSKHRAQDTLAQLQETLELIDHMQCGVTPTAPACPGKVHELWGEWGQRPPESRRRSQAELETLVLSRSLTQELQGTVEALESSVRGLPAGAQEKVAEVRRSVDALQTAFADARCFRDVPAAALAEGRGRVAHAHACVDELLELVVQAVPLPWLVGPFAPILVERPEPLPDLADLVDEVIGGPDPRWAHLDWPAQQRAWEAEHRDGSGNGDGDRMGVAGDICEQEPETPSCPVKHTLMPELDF
Sequence of 1-acylglycerol-3-phosphate O-acyltransferase ABHD5/Perilipin-5 (Q8WTS1 whole entry, the tested form may be a part): as the sequence (Q8WTS1 whole entry, the tested form may be a part) above

[11] = biological target: T2, G-protein coupled receptor 55 (Homo sapiens, UniProt Q9Y2T6); test: inhibition of LPI-stimulated GPR55 beta-arrestin translocation – imaging, U2OS, beta-arrestin-GFP, LPI agonist, primary screen (AID 2013); assay type: functional;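 further: antagonist potency measured as reduced agonist-driven arrestin aggregation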
T2 sequence (Q9Y2T6 whole entry): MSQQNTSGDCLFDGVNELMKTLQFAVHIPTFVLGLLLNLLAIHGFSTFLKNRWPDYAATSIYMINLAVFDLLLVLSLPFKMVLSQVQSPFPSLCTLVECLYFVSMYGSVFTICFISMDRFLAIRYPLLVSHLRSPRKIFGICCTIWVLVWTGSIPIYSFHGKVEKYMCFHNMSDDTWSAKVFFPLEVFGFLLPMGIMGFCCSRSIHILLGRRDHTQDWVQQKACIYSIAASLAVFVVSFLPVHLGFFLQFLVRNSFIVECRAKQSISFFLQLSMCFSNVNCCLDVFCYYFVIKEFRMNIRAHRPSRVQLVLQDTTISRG

[12] = biological target: T2, G-protein coupled receptor 55; test: blockade of LPI-induced GPR55 arrestin translocation – imaging, U2OS, beta-arrestin-GFP, LPI agonist, set 2, SAR follow-up (AID 2820); assay type: functional
[13] = biological target: T3, G-protein coupled receptor 35 (Homo sapiens, UniProt Q9HC97); test: SAR analysis of Agonists of the GPR35 Receptor using an Image-Based Assay - Set 2. [Related pubchem assays (depositor defined):AID2013, AID2026]; assay type: functional
T3 sequence (Q9HC97 whole entry): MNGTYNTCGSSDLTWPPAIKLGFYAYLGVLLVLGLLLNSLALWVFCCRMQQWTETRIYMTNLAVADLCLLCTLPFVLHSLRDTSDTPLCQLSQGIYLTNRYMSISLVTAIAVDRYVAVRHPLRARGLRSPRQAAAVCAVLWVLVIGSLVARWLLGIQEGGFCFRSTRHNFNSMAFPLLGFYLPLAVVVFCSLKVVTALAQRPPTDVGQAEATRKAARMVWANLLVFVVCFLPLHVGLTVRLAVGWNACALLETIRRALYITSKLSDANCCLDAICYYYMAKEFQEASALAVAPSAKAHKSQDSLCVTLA

Cannabinoid receptor 2 [14] = biological target: T4, Cannabinoid receptor 2 (Homo sapiens, UniProt P34972); test: SAR analysis of agonists of the Cannabinoid Receptor 2 using an Image-Based Assay. [Related pubchem assays (depositor defined):AID2013, AID2026]; assay type: functional
T4 sequence (P34972 whole entry): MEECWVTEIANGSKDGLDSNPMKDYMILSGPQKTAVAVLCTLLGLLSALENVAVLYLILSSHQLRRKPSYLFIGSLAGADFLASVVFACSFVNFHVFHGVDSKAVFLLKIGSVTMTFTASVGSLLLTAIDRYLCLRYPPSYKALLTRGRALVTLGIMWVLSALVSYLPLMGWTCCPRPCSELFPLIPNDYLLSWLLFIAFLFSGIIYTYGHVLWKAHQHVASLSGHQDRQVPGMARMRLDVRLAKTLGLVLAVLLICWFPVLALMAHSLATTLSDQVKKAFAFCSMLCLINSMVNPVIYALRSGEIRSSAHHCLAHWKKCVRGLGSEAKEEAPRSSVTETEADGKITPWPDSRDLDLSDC

[15] = biological target: T3, G-protein coupled receptor 35; test: SAR analysis of Antagonists of the GPR35 Receptor using an Image-Based Assay - Set 3. [Related pubchem assays (depositor defined):AID2013, AID2026]; assay type: functional
Cannabinoid receptor 2 [16] = biological target: T4, Cannabinoid receptor 2; test: SAR analysis of antagonists of the Cannabinoid Receptor 2 using an Image-Based Assay. [Related pubchem assays (depositor defined):AID2013, AID2026]; assay type: functional
Cannabinoid receptor 1 [17] = biological target: T5, Cannabinoid receptor 1 (Homo sapiens, UniProt P21554); test: SAR analysis of agonists of the Cannabinoid Receptor 1 using an Image-Based Assay - Set 2. [Related pubchem assays (depositor defined):AID2013, AID2026]; assay type: functional
T5 sequence (P21554 whole entry): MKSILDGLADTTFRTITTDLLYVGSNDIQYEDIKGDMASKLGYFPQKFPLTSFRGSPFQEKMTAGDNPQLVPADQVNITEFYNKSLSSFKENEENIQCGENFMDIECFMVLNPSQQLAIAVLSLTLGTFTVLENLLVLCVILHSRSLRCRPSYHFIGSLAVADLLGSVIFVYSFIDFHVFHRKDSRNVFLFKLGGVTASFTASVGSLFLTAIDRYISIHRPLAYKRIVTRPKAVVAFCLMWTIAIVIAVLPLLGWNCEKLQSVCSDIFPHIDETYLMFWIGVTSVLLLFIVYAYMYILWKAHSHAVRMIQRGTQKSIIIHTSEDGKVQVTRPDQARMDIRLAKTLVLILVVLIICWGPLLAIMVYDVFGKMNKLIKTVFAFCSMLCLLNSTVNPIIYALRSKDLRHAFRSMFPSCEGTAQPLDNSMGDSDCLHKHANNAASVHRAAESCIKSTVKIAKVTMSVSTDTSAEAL

Cannabinoid receptor 1 [18] = biological target: T5, Cannabinoid receptor 1; test: SAR analysis of antagonists of the Cannabinoid Receptor 1 using an Image-Based Assay - Set 2. [Related pubchem assays (depositor defined):AID2013, AID2026]; assay type: functional
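Wherever AC50 is given: cells exposed to compound for roughly 70 hours or longer before luminescence read.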

With `CCc1nnc(NC(=O)CSc2nc3cccnc3n2C2CCCCC2)s1` the EC50 [1] was > 120 µM (not active), the EC50 [2] was > 100 µM (inactive) and the EC50 [3] was 23.2 µM (active). The EC50 [4] was 13.3 µM (active).
With `CCN(CC)C(=O)CSc1nnc(-c2ccccc2OC)[nH]1` the IC50 [5] was > 100 µM (not active), the IC50 [6] was 17.6 µM (active) and the IC50 [7] was > 100 µM (inactive).
In the case of `Oc1ccccc1-n1c(-c2ccccc2)ccc1-c1ccccc1`, the AC50 [8] is reported as 4.28 µM (active), the “Absolute IC50 (CHOP)” value [9] is reported as 10 µM and the “Absolute IC50 (XBP1)” value (X-box-binding protein 1) is reported as 10 µM.
In the case of `COc1cccc(/C=C/C(=O)c2c(O)cc(C)oc2=O)c1O`, the IC50 (Perilipin-1/ABHD5) is reported as 6.79 µM (active) and the IC50 [10] is reported as 9.96 µM (active).
For `Cc1n[nH]c(-c2ccc(O)c(C)c2O)c1Oc1ccccc1`, the IC50 [11] was 1.9 µM (active), the IC50 [12] was 854 nM (active) and the EC50 [13] was > 32 µM (inactive). For the same compound, the EC50 (Cannabinoid receptor 2 [14]) was > 32 µM (inactive), the IC50 [15] was > 32 µM (inactive) and the IC50 (Cannabinoid receptor 2 [16]) was > 32 µM (inactive). The EC50 (Cannabinoid receptor 1 [17]) was > 32 µM (inactive) and the IC50 (Cannabinoid receptor 1 [18]) was 11.7 µM (inactive).
